The target in one assay is monkey NPC1L1 (Macaca mulatta, UniProt A0MJA5). Kind of assay: Fluorescence NPC1L1 binding assay, HEK-293 cells, BODIPY-labeled compound 1. Further details: species or system rhesus monkey. How it is done: Cell Culture and Membrane Preparation. Each plasmid pCR3.1 harboring NPC1L1 was prepared using standard molecular biology protocols. Stable cell lines expressing human, rhesus monkey, mouse, rat, hamster, canine or rabbit NPC1L1 were generated using Lipofectamine 2000 transfection reagent in HEK-293 cells according to the manufacturer's protocol. Cells were maintained in DMEM supplemented with 10% FBS, 100 U/ml pen/strep, and 500 μg/ml geneticin at 37° C., 5% CO2. All cell culture reagents were obtained from Invitrogen Life Technologies, (Carlsbad, Calif.). Cell membranes were prepared by lysing cells in 5 mM HEPES with protease inhibitors (Complete™ Protease Inhibitor Cocktail Tablets; Roche Diagnostics Corp., Indianapolis Ind.) for 15 min at 4° C. A membrane pellet was obtained by centrifuging the cell lysates at 12,000×g for 25 min. The membranes were resuspended in 5 mM HEPES with protease inhibitors and triturated with a 21G needle.
Fluorescence. Cells were plated into 384-well black/clear plates (BD Biosciences, Bedford Mass.) for binding experiments the following day. The media was aspirated. […] Media (20 μl) containing the indicated concentration of compound was then added to the wells. […] The binding reaction was allowed to proceed for 4 hours at 37° C. Subsequently the media was aspirated and the cells washed once with PBS.

In a further assay the target is canine NPC1L1 (Canis lupus familiaris, UniProt A0MJA4). Described as above.
Assay [1] addresses T1, human NPC1L1 (Homo sapiens, UniProt Q9UHC9, T1073A).
T1 construct: expressed in transfected cells
T1 sequence (Q9UHC9 22-1332 isoform Q9UHC9-2 T1046A): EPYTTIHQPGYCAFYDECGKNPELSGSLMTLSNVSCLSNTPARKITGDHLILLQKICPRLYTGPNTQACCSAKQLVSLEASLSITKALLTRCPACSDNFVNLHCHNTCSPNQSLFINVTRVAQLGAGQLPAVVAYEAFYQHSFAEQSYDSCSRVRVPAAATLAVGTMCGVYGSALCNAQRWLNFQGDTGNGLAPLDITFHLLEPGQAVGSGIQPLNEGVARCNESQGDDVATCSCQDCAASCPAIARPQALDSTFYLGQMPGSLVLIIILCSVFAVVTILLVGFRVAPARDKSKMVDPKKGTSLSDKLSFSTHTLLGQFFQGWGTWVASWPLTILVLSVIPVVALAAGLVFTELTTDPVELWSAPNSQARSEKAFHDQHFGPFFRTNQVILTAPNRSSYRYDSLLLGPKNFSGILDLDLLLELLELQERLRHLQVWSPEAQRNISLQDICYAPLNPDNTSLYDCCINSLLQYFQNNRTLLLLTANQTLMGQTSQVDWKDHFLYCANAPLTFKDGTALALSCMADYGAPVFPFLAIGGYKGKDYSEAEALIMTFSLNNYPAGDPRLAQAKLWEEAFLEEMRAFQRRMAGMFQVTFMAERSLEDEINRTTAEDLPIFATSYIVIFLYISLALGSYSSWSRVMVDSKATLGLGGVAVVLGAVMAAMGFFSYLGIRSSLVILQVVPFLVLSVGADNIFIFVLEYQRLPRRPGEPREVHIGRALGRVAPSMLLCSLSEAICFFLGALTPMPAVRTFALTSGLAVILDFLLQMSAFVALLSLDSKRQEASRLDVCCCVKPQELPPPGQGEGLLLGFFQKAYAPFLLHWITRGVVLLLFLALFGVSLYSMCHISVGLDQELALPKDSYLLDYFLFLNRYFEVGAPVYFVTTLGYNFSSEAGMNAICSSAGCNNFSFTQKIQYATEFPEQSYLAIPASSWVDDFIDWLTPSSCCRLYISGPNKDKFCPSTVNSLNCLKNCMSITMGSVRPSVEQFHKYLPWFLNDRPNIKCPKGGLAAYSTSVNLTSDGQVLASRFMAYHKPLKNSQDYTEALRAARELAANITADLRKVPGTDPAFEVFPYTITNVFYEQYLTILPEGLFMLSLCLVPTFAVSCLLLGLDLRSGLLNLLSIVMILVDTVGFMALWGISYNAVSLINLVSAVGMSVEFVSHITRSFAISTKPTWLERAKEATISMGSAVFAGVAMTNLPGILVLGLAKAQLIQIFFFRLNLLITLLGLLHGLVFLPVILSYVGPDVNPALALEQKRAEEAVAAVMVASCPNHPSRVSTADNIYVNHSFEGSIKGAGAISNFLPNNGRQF
The description is as above. The settings on record: Human NPC1L1, competition with compound 1; read-out: Ki.

Assay [2] deals with T1, human NPC1L1. Put plainly: Radioligand binding of [3H]-glucuronidated ezetimibe (compound 4) to cell membranes. Here is the method: Cell Culture and Membrane Preparation. […] Cells were maintained in DMEM supplemented with 10% FBS, 100 U/ml pen/strep, and 500 μg/ml geneticin at 37° C., 5% CO2. All cell culture reagents were obtained from Invitrogen Life Technologies, (Carlsbad, Calif.). Cell membranes were prepared by lysing cells in 5 mM HEPES with protease inhibitors (Complete™ Protease Inhibitor Cocktail Tablets; Roche Diagnostics Corp., Indianapolis Ind.) for 15 min at 4° C. A membrane pellet was obtained by centrifuging the cell lysates at 12,000×g for 25 min. […] Radioligand. […] Natl. Acad. Sci. […] Reactions were performed in binding buffer (5 mM HEPES, 5.5 mM glucose, 117 mM NaCl and 5.4 mM KCl, pH 7.4). Cell membranes (50 μg in 20 μl) were added to each well. […] Binding reactions were incubated for 2 hours at 37° C. Samples were transferred to Unifilter-96 GF/C plates (Perkin Elmer, Wellesley Mass.) and filtered using a Brandel harvester (Gaithersburg Md.). […] Liquid scintillant (50 μl; Microscint-20, Perkin Elmer, Wellesley Mass.) was added and the bound radioactivity was measured using a microplate scintillation counter.

The target in assay [3] is T1, human NPC1L1. The settings on record: human NPC1L1, Garcia-Calvo et al. 2005; read-out: Kd, previously reported; cited from earlier work.

Structures are written as SMILES. Like-named read-outs stand apart in the source and are kept apart here.

Here are results for one compound from US8212016B2, “NPC1L1 orthologues” (Schering Corporation, priority 2006, dated 2012).

Take `O=C(O)[C@H]1O[C@@H](Oc2ccc([C@@H]3[C@@H](CC[C@H](O)c4ccc(F)cc4)C(=O)N3c3ccc(F)cc3)cc2)[C@H](O)[C@@H](O)[C@@H]1O` [compound 4, glucuronidated ezetimibe]: the Ki on monkey NPC1L1 (Monkey NPC1L1, competition with compound 1, read-out: Ki) was 0.092 µM; at canine NPC1L1 (Canine NPC1L1, competition with compound 1, read-out: Ki) it was 0.192 µM; on canine NPC1L1 (Table 3, Dog, read-out: Ki Dog NPC1L1) it was 0.19 µM; on human NPC1L1 [1], 0.66 µM. For the same compound, the “difference in affinity versus ezetimibe (compound 3)” value on monkey NPC1L1 (monkey NPC1L1) is recorded as about 10 fold. For the same compound, the Kd on human NPC1L1 [2] is 0.206 µM; at human NPC1L1 [3], 0.22 µM.

For orientation: Ki means the dissociation constant of the complex between target and ligand, obtained from inhibition or displacement. As a reminder, the Kd is the constant that tells how readily two partners part at equilibrium.
